According to the NIST ThermoML archive (doi:10.1016/j.jct.2016.03.018):
± gives the expanded uncertainty stated by the source.

Conditions: Liquid, Closed cell (Static) method

Compound	vapor or sublimation pressure (273.15 K) [kPa]	vapor or sublimation pressure (283.15 K) [kPa]	vapor or sublimation pressure (293.15 K) [kPa]	vapor or sublimation pressure (253.15 K) [kPa]	vapor or sublimation pressure (263.15 K) [kPa]
F/C=C\C(F)(F)F [(Z)-1,3,3,3-tetrafluoro-1-propene]	68.5 ± 1	102.5 ± 1.1	148.9 ± 1.1		
CCC [propane]	474.4 ± 1.7	636.4 ± 2.1	836.3 ± 2.6	244.1 ± 1.2	345.1 ± 1.4
